Data from PubChem BioAssay AID248 (DTP/NCI, 2004).
Where “and” joins values, the source holds several entries; their conditions need not be identical. Identical values can stand only once. Inconclusive results and toxic doses are left out. No stated cut-off is given here; in the data, active means T/C of 150% or more; inactive means T/C below 125%.

System: L1210 leukemia ip in BDF1 mice, survival T/C
Test: NCI In Vivo Anticancer Drug Screen. Data for tumor model L1210 Leukemia (intraperitoneal) in B6D2F1 (BDF1) mice
Conditions: higher = longer survival
Outline: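 Tumor cells were implanted, animals were treated, and survival was followed. The result divides the treated measurement by the vehicle-control measurement.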

[1] = endpoint: mean survival time, dose: 50.0 mg/kg/injection, schedule: Q01DX009 (ip), vehicle: saline
[2] = endpoint: mean survival time, dose: 100.0 mg/kg/injection, schedule: Q01DX009 (ip), vehicle: saline
[3] = endpoint: mean survival time, dose: 100.0 mg/kg/injection, schedule: Q01DX001 (ip), vehicle: saline
[4] = endpoint: mean survival time, dose: 200.0 mg/kg/injection, schedule: Q01DX001 (ip), vehicle: saline
[5] = endpoint: mean survival time, dose: 400.0 mg/kg/injection, schedule: Q01DX001 (ip), vehicle: saline
[6] = endpoint: mean survival time, dose: 100.0 mg/kg/injection, schedule: Q04DX003 (ip), vehicle: Klucel (hydroxypropylcellulose) (HPC)
[7] = endpoint: mean survival time, dose: 200.0 mg/kg/injection, schedule: Q04DX003 (ip), vehicle: Klucel (hydroxypropylcellulose) (HPC)
[8] = endpoint: mean survival time, dose: 400.0 mg/kg/injection, schedule: Q04DX003 (ip), vehicle: Klucel (hydroxypropylcellulose) (HPC)
[9] = endpoint: mean survival time, dose: 200.0 mg/kg/injection, schedule: Q01DX009 (ip), vehicle: saline

Measured: T/C

CCC(=O)c1ccc2c(c1)N(C(C)CN(C)C)c1ccccc1S2 (configuration not stated)
inactive: endpoint: mean survival time, dose: 1.56 mg/kg/injection, schedule: Q03HX024 (ip), vehicle: saline 100 % of control | endpoint: mean survival time, dose: 3.12 mg/kg/injection, schedule: Q03HX024 (ip), vehicle: saline 102 % of control | endpoint: mean survival time, dose: 6.25 mg/kg/injection, schedule: Q01DX009 (ip), vehicle: saline 100 % of control and 106 % of control | endpoint: mean survival time, dose: 6.25 mg/kg/injection, schedule: Q03HX024 (ip), vehicle: saline 100 % of control | endpoint: mean survival time, dose: 6.25 mg/kg/injection, schedule: Q04DX003 (ip), vehicle: saline 101 % of control | endpoint: mean survival time, dose: 12.5 mg/kg/injection, schedule: Q01DX009 (ip), vehicle: saline 104 % of control and 109 % of control and 110 % of control | endpoint: mean survival time, dose: 12.5 mg/kg/injection, schedule: Q03HX024 (ip), vehicle: saline 100 % of control | endpoint: mean survival time, dose: 12.5 mg/kg/injection, schedule: Q04DX003 (ip), vehicle: saline 103 % of control | endpoint: mean survival time, dose: 18.75 mg/kg/injection, schedule: Q01DX001 (ip), vehicle: saline 107 % of control | endpoint: mean survival time, dose: 25.0 mg/kg/injection, schedule: Q01DX009 (ip), vehicle: saline 106 % of control and 110 % of control and 116 % of control | endpoint: mean survival time, dose: 25.0 mg/kg/injection, schedule: Q04DX003 (ip), vehicle: saline 103 % of control and 104 % of control | endpoint: mean survival time, dose: 37.5 mg/kg/injection, schedule: Q01DX001 (ip), vehicle: saline 115 % of control | [1] 109 % of control and 118 % of control | endpoint: mean survival time, dose: 50.0 mg/kg/injection, schedule: Q04DX003 (ip), vehicle: saline 109 % of control and 120 % of control | endpoint: mean survival time, dose: 75.0 mg/kg/injection, schedule: Q01DX001 (ip), vehicle: saline 109 % of control | [2] 90 % of control | endpoint: mean survival time, dose: 150.0 mg/kg/injection, schedule: Q01DX001 (ip), vehicle: saline 96 % of control

CCOC(=O)c1c(C)c(C(=O)CC)c(C)n1C(=O)c1ccccc1
inactive: [3] 100 % of control | [4] 102 % of control | [5] 96 % of control

Clc1ccc(Oc2ccc(N3C=Nc4ccc(Oc5ccc(Cl)cc5)cc4C3)cc2)cc1
inactive: endpoint: mean survival time, dose: 100.0 mg/kg/injection, schedule: Q01DX009 (ip), vehicle: saline with Tween-80 98 % of control | endpoint: mean survival time, dose: 100.0 mg/kg/injection, schedule: Q04DX003 (ip), vehicle: saline with Tween-80 97 % of control | endpoint: mean survival time, dose: 200.0 mg/kg/injection, schedule: Q01DX009 (ip), vehicle: saline with Tween-80 96 % of control | endpoint: mean survival time, dose: 200.0 mg/kg/injection, schedule: Q04DX003 (ip), vehicle: saline with Tween-80 94 % of control | endpoint: mean survival time, dose: 400.0 mg/kg/injection, schedule: Q01DX009 (ip), vehicle: saline with Tween-80 93 % of control | endpoint: mean survival time, dose: 400.0 mg/kg/injection, schedule: Q04DX003 (ip), vehicle: saline with Tween-80 89 % of control

Cc1c([N+](=O)[O-])cc(C(=O)Cl)cc1[N+](=O)[O-]
inactive: endpoint: mean survival time, dose: 100.0 mg/kg/injection, schedule: Q04DX003 (ip), vehicle: other 106 % of control | endpoint: mean survival time, dose: 200.0 mg/kg/injection, schedule: Q04DX003 (ip), vehicle: other 109 % of control

O=[N+]([O-])c1ccc(OCc2ccc(Cl)c(S(=O)(=O)F)c2)c(Cl)c1
inactive: endpoint: mean survival time, dose: 100.0 mg/kg/injection, schedule: Q01DX001 (ip), vehicle: gum acacia 102 % of control | endpoint: mean survival time, dose: 200.0 mg/kg/injection, schedule: Q01DX001 (ip), vehicle: gum acacia 102 % of control | endpoint: mean survival time, dose: 400.0 mg/kg/injection, schedule: Q01DX001 (ip), vehicle: gum acacia 98 % of control

Cc1c(Cl)cccc1NC(=O)OC(C)C
inactive: [6] 106 % of control | [7] 97 % of control | [8] 97 % of control

CCOC(=O)c1[nH]c(-c2ccccc2)nc1/N=N/N(C)C
inactive: endpoint: median survival time, dose: 25.0 mg/kg/injection, schedule: Q01DX009 (ip), vehicle: Klucel (hydroxypropylcellulose) (HPC) 122 % of control | endpoint: median survival time, dose: 200.0 mg/kg/injection, schedule: Q01DX009 (ip), vehicle: Klucel (hydroxypropylcellulose) (HPC) 111 % of control

O=C(C[n+]1ccc(/C=N\O)cc1)c1ccc(-c2ccc(C(=O)C[n+]3ccc(/C=N/O)cc3)cc2)cc1
inactive: endpoint: mean survival time, dose: 100.0 mg/kg/injection, schedule: Q04DX002 (ip), vehicle: Klucel (hydroxypropylcellulose) (HPC) 103 % of control | endpoint: mean survival time, dose: 200.0 mg/kg/injection, schedule: Q04DX002 (ip), vehicle: Klucel (hydroxypropylcellulose) (HPC) 100 % of control | endpoint: mean survival time, dose: 400.0 mg/kg/injection, schedule: Q04DX002 (ip), vehicle: Klucel (hydroxypropylcellulose) (HPC) 92 % of control

O=S(=O)(CCCc1ccccc1)c1ccccc1
inactive: endpoint: mean survival time, dose: 50.0 mg/kg/injection, schedule: Q01DX001 (ip), vehicle: other 102 % of control | endpoint: mean survival time, dose: 100.0 mg/kg/injection, schedule: Q01DX001 (ip), vehicle: other 102 % of control | [6] 98 % of control | endpoint: mean survival time, dose: 200.0 mg/kg/injection, schedule: Q01DX001 (ip), vehicle: other 104 % of control | [7] 100 % of control | endpoint: mean survival time, dose: 400.0 mg/kg/injection, schedule: Q01DX001 (ip), vehicle: other 116 % of control | [8] 102 % of control

CC(C)COC(=O)C1(C)OC1c1ccccc1 (configuration not stated)
inactive: endpoint: mean survival time, dose: 100.0 mg/kg/injection, schedule: Q04DX002 (ip), vehicle: saline 115 % of control | endpoint: mean survival time, dose: 200.0 mg/kg/injection, schedule: Q04DX002 (ip), vehicle: saline 104 % of control | endpoint: mean survival time, dose: 400.0 mg/kg/injection, schedule: Q04DX002 (ip), vehicle: saline 97 % of control

CCC[CH2][Sn](=[O])[OH]
inactive: endpoint: mean survival time, dose: 100.0 mg/kg/injection, schedule: Q04DX002 (ip), vehicle: saline with Tween-80 91 % of control | endpoint: mean survival time, dose: 200.0 mg/kg/injection, schedule: Q04DX002 (ip), vehicle: saline with Tween-80 91 % of control | endpoint: mean survival time, dose: 400.0 mg/kg/injection, schedule: Q04DX002 (ip), vehicle: saline with Tween-80 94 % of control

CCCCSC(=N)N
inactive: [3] 94 % of control

CN1CCN(Cc2cc(C(C)(C)C)cc(-c3ccccc3)c2O)CC1
inactive: endpoint: mean survival time, dose: 100.0 mg/kg/injection, schedule: Q04DX003 (ip), vehicle: saline 92 % of control | endpoint: mean survival time, dose: 200.0 mg/kg/injection, schedule: Q04DX003 (ip), vehicle: saline 102 % of control | endpoint: mean survival time, dose: 400.0 mg/kg/injection, schedule: Q04DX003 (ip), vehicle: saline 110 % of control

CN(C)C=Nc1ccc2c3c(cccc13)CC2
inactive: endpoint: mean survival time, dose: 6.25 mg/kg/injection, schedule: Q04DX003 (ip), vehicle: saline with Tween-80 103 % of control | endpoint: mean survival time, dose: 12.5 mg/kg/injection, schedule: Q04DX003 (ip), vehicle: saline with Tween-80 88 % of control | endpoint: mean survival time, dose: 25.0 mg/kg/injection, schedule: Q04DX003 (ip), vehicle: saline with Tween-80 98 % of control

CC(C)(C)N(N)Cc1ccccc1
inactive: [3] 106 % of control | [4] 95 % of control | [5] 104 % of control

O=CNC(Cc1cccc(N(CCCl)CCCl)c1)C(=O)O (configuration not stated)
inactive: endpoint: mean survival time, dose: 8.0 mg/kg/injection, schedule: Q01DX Z (ip), vehicle: methylcellulose (MC) 106 % of control | endpoint: mean survival time, dose: 12.0 mg/kg/injection, schedule: Q01DX Z (ip), vehicle: methylcellulose (MC) 95 % of control | endpoint: mean survival time, dose: 18.0 mg/kg/injection, schedule: Q01DX Z (ip), vehicle: methylcellulose (MC) 103 % of control | endpoint: mean survival time, dose: 27.0 mg/kg/injection, schedule: Q01DX Z (ip), vehicle: methylcellulose (MC) 97 % of control

COc1cc(C=Nc2ccc(-c3nc(C)sc3C)cc2)ccc1N(CCOS(C)(=O)=O)CCOS(C)(=O)=O
inactive: [1] 111 % of control | [3] 110 % of control | [2] 121 % of control | [4] 105 % of control | [9] 116 % of control

O=C(OCC(Cl)(Cl)Cl)OCC(Cl)(Cl)Cl
inactive: [6] 98 % of control | [7] 98 % of control

O=C1OC(O)c2cccc3cccc1c23 (configuration not stated)
inactive: endpoint: mean survival time, dose: 12.5 mg/kg/injection, schedule: Q01DX009 (ip), vehicle: saline with Tween-80 93 % of control and 89 % of control

CS(=O)(=O)c1ccc(Nn2c(N)nn(-c3ccc(S(C)(=O)=O)cc3)c2=N)cc1
inactive: [1] 93 % of control and 95 % of control and 96 % of control | [2] 95 % of control and 86 % of control | [9] 97 % of control and 107 % of control and 92 % of control
